# Reference: patent US10179767B2 (GENENTECH, INC., priority 2015, dated 2019)
# Target: T1, hNav1.7 (Homo sapiens, UniProt Q15858)
# T1 construct: expressed in transfected cells
# Experiment: Tritiated sulfonamide binding to membranes from cells expressing hNav1.7 and the β1 subunit (Nav 1.7 ligand binding assay, competitive)
# Details: competition with 100 pM [3H]compound, room temperature, 18 h
# Description: Tritiated Sulfonamide Binding to Membranes Isolated from Cells that Heterologously Express hNav1.7 and the β1 Subunit
# Preparation of membranes containing recombinantly expressed sodium channels: Frozen recombinant cell pellets were thawed on ice and diluted to 4 times the cell pellet weight with ice cold 50 mM Tris HCl, pH 7.4 buffer. The cell suspensions were homogenized on ice using a motorized glass dounce homogeniser. Homogenates were further diluted 8.4 times with ice cold 50 mM Tris HCl, pH 7.4 buffer and then centrifuged at 200×g at 4° C. for 15 min. The supernatants were collected and centrifuged at 10000×g at 4° C. for 50 min. The pellets were then re-suspended in 100 mM NaCl, 20 mM Tris HCl, pH 7.4 buffer containing 1% v/v protease inhibitors (Calbiochem) and re-homogenized on ice. The homogenized membranes were then processed through a syringe equipped with a 26 gauge needle. Protein concentrations were determined by Bradford Assay and the membranes were stored at −80° C.
# Radioligand Binding Studies:
# Saturation experiments. A competitive NaV1.7 inhibitor having a methyl group was tritiated. Three tritiums were incorporated in place of methyl hydrogens to generate [^3H]compound. Binding of this radioligand was preformed in 5 mL borosilicate glass test tubes at room temperature. Binding was initiated by adding membranes to increasing concentrations of [^3H]compound in 100 mM NaCl, 20 mM Tris HCl, pH 7.4 buffer containing 0.01% w/v bovine serum albumin (BSA) for 18 h. Non-specific binding was determined in the presence of 1 μM unlabelled compound. After 18 h, the reactants were filtered through GF/C glass fiber filters presoaked in 0.5% w/v polyethylene imine Filters were washed with 15 mL ice cold 100 mM NaCl, 20 mM Tris HCl, pH7.4 buffer containing 0.25% BSA to separate bound from free ligand. [^3H]compound bound to filters was quantified by liquid scintillation counting.
# Competitive Binding Experiments:
# Binding reactions were preformed in 96-well polypropylene plates at room temperature for 18 h. In 360 μL, membranes were incubated with 100 pM [^3H]compound and increasing concentrations of Test Compound. Non-specific binding was defined in the presence of 1 μM unlabelled compound. Reactions were transferred and filtered through 96-well glass fiber/C filter plates presoaked with 0.5% polyethylene imine. The filtered reactions were washed 5 times with 200 μL ice cold buffer containing 0.25% BSA. Bound radioactivity was determined by liquid scintillation counting. Data Analysis: For saturation experiments, non-specific binding was subtracted from total binding to provide specific binding and these values were recalculated in terms of pmol ligand bound per mg protein. Saturation curves were constructed and dissociation constants were calculated using the single site ligand binding model: Beq=(Bmax*X)/(X+Kd), where Beq is the amount of ligand bound at equilibrium, Bmax is the maximum receptor density, Kd is the dissociation constant for the ligand, and X is the free ligand concentration. For competition studies percent inhibition was determined and IC50 values were calculated using a 4 parameter logistic model (% inhibition=(A+((B−A)/(1+((x/C)⨣D)))) using XLfit, where A and B are the maximal and minimum inhibition respectively, C is the IC50 concentration and D is the (Hill) slope.
# T1 sequence (Q15858 whole entry): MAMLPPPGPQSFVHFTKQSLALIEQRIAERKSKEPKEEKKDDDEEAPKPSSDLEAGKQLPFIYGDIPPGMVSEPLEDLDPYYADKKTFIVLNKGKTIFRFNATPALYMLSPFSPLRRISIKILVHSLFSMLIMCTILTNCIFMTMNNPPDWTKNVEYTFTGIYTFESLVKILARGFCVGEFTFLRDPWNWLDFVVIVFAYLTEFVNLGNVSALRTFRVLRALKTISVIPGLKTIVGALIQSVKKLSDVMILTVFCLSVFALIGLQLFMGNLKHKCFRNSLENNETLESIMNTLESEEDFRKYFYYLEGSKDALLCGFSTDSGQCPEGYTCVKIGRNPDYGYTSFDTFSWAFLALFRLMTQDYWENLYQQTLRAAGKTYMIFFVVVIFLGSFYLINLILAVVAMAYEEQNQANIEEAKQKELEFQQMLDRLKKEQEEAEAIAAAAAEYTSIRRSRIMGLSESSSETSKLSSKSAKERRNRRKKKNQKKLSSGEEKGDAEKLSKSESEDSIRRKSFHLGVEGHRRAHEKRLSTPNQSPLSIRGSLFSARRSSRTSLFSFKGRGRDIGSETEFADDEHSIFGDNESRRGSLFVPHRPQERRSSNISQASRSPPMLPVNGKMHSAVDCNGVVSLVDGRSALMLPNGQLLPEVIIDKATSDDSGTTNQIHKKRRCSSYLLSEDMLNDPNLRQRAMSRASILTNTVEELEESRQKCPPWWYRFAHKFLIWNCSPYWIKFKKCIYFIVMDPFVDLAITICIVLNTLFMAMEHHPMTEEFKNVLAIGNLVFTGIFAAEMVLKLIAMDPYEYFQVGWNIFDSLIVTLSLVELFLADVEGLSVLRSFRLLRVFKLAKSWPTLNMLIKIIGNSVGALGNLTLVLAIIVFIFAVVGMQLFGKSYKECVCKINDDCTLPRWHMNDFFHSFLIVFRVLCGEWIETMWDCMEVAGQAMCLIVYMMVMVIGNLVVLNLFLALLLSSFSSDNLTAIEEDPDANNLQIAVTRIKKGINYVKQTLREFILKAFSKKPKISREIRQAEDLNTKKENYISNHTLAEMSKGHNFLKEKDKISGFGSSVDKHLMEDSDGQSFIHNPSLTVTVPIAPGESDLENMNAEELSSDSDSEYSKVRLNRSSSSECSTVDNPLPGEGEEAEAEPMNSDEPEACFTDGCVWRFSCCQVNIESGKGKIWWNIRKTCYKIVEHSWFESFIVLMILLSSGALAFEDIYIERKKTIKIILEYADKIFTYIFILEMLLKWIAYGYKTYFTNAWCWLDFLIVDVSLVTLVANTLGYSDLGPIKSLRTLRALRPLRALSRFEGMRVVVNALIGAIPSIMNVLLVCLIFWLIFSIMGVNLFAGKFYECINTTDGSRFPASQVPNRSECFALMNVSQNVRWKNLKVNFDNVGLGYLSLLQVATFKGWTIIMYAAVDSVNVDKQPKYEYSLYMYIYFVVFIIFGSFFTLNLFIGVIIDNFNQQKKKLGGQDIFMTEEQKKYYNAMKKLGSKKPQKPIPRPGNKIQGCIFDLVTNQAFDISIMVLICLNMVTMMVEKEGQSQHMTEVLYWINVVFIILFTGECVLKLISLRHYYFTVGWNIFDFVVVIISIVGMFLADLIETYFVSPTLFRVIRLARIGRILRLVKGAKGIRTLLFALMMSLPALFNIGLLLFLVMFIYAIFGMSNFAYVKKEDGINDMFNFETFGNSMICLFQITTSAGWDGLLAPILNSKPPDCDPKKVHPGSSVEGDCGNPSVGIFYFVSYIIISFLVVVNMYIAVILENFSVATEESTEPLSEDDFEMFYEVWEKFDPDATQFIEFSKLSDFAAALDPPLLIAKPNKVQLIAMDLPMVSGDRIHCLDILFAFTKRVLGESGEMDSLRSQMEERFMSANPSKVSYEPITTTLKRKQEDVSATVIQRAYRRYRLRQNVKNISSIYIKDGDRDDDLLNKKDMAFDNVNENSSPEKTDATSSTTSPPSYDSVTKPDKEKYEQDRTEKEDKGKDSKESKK
# T1 sequence (Q07699 19-218 partner): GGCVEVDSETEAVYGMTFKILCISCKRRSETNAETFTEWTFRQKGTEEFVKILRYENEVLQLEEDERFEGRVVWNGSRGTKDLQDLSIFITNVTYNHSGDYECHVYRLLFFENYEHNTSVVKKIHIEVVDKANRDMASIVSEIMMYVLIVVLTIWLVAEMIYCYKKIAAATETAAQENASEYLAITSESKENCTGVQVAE
row,Compound,IC50 [nM]
1,"CS(=O)(=O)NC(=O)c1cc(C2CC2)c(OCC2CCN(Cc3cc(Cl)cc(C(F)(F)F)n3)CC2)cc1F [Example 53, 4-((1-((4-chloro-6-(trifluoromethyl)pyridin-2-yl)methyl)piperidin-4-yl)methoxy)-5-cyclopropyl-2-fluoro-N-(methylsulfonyl)benzamide]",9.4
2,"CCS(=O)(=O)NC(=O)c1cc(C2CC2)c(OCC2CCN(Cc3cc(Cl)cc(Cl)c3OC)CC2)cc1F [Example 13, 5-Cyclopropyl-4-((1-(3,5-dichloro-2-methoxybenzyl)piperidin-4-yl)methoxy)-N-(ethylsulfonyl)-2-fluorobenzamide]",4.1
3,"O=C(NS(=O)(=O)N1CCC1)c1cc(C2CC2)c(O[C@H]2CCCN(Cc3ccc(F)cc3Cl)C2)cc1F [Example 41, (S)—N-(azetidin-1-ylsulfonyl)-4-((1-(2-chloro-4-fluorobenzyl)piperidin-3-yl)oxy)-5-cyclopropyl-2-fluorobenzamide]",140
4,"CS(=O)(=O)NC(=O)c1cc(C2CC2)c(OCC2CCN([C@@H](c3cc(Cl)cc(Cl)c3)C3COC3)CC2)cc1F (single isomer, unassigned) [Example 35]",8.2
5,"CS(=O)(=O)NC(=O)c1ccc(OCC2CCN(Cc3cc(C(F)(F)F)cc(Cl)c3F)CC2)c(C2CC2)c1 [Example 62, 4-((1-(3-chloro-2-fluoro-5-(trifluoromethyl)benzyl)piperidin-4-yl)methoxy)-3-cyclopropyl-N-(methylsulfonyl)benzamide]",9.8
6,"C[C@@H]1[C@H](Oc2cc(F)c(C(=O)NS(C)(=O)=O)cc2C2CC2)CCCN1Cc1cc(Cl)cc(Cl)c1 [Example 52, 5-cyclopropyl-4-(((2R,3R)-1-(3,5-dichlorobenzyl)-2-methylpiperidin-3-yl)oxy)-2-fluoro-N-(methylsulfonyl)benzamide]",2.4
7,"CC(c1cc(Cl)cc(C2CC2)n1)N1CCC(COc2cc(F)c(C(=O)NS(=O)(=O)C3CC3)cc2C2CC2)CC1 (stereo not shown) [Example 47, 4-((1-(1-(4-chloro-6-cyclopropylpyridin-2-yl)ethyl)piperidin-4-yl)methoxy)-5-cyclopropyl-N-(cyclopropylsulfonyl)-2-fluorobenzamide]",9.9
8,"CS(=O)(=O)NC(=O)c1cc(C2CC2)c(OCC2CCN(Cc3cc(Cl)cc(OC4CC4)c3)CC2)cc1F [Example 28, 4-((1-(3-Chloro-5-cyclopropoxybenzyl)piperidin-4-yl)methoxy)-5-cyclopropyl-2-fluoro-N-(methylsulfonyl)benzamide]",6
9,"CS(=O)(=O)NC(=O)c1cc(C2CC2)c(OCC2CCN(Cc3cc(Cl)cc(C4CC4)n3)CC2)cc1F [Example 49, 4-((1-((4-chloro-6-cyclopropylpyridin-2-yl)methyl)piperidin-4-yl)methoxy)-5-cyclopropyl-2-fluoro-N-(methylsulfonyl)benzamide]",11
10,"CS(=O)(=O)NC(=O)c1ccc(OCC2CCN(Cc3cc(C(F)(F)F)ccc3Cl)CC2)c(C2CC2)c1 [Example 60, 4-((1-(2-chloro-5-(trifluoromethyl)benzyl)piperidin-4-yl)methoxy)-3-cyclopropyl-N-(methylsulfonyl)benzamide]",8.1
11,"CC(c1cc(Cl)cc(Cl)c1)N1CCC(COc2ccc(C(=O)NS(C)(=O)=O)cc2C2CC2)CC1 (stereo not shown) [Example 61, 3-cyclopropyl-4-((1-(1-(3,5-dichlorophenyl)ethyl)piperidin-4-yl)methoxy)-N-(methylsulfonyl)-benzamide]",10
12,O=C(NS(=O)(=O)C1CC1)c1cc(C2CC2)c(OCC2CCN(Cc3cc(Cl)cc(C(F)(F)F)n3)CC2)cc1F [Example 54],4.2
13,"CS(=O)(=O)NC(=O)c1cc(C2CC2)c(OCC2CCN(Cc3cc(Cl)cc(C(F)(F)F)c3C#N)CC2)cc1F [Example 4, 4-((1-(5-Chloro-2-cyano-3-(trifluoromethyl)benzyl)piperidin-4-yl)methoxy)-5-cyclopropyl-2-fluoro-N-(methylsulfonyl)benzamide]",6.6
14,"CC(C)(C#N)[C@@H](c1cc(Cl)cc(Cl)c1)N1CCC(COc2cc(F)c(C(=O)NS(C)(=O)=O)cc2C2CC2)CC1 (single isomer, unassigned) [Example 12]",3.9

# The remaining lines, values ahead:
row,IC50 [nM],Compound
1,6.4,"C[C@H](c1ccc(Cl)c(Cl)c1)N1CCC(F)(COc2cc(F)c(C(=O)NS(C)(=O)=O)cc2C2CC2)CC1 (single isomer, unassigned) [Example 23]"
2,5.3,"CS(=O)(=O)NC(=O)c1cc(C2CC2)c(OCC2(F)CCN(Cc3ccc(F)c(Cl)c3)CC2)cc1F [Example 31, 4-((1-(3-Chloro-4-fluorobenzyl)-4-fluoropiperidin-4-yl)methoxy)-5-cyclopropyl-2-fluoro-N-(methylsulfonyl)benzamide]"
3,5.6,"C[C@@H](c1cc(Cl)cc(Cl)c1)N1CCC(F)(COc2cc(F)c(C(=O)NS(=O)(=O)N3CCC3)cc2C2CC2)CC1 [Example 58, (S)—N-(azetidin-1-ylsulfonyl)-5-cyclopropyl-4-((1-(1-(3,5-dichlorophenyl)ethyl)-4-fluoropiperidin-4-yl)methoxy)-2-fluorobenzamide]"
4,9.8,"C[C@H](c1cc(C(F)(F)F)cc(Cl)c1F)N1CCC(C#N)(COc2cc(F)c(C(=O)NS(C)(=O)=O)cc2C2CC2)CC1 (single isomer, unassigned) [Example 8]"
5,8.6,"C[C@H](c1ccc(F)c(Cl)c1)N1CCC(F)(COc2cc(F)c(C(=O)NS(C)(=O)=O)cc2C2CC2)CC1 (single isomer, unassigned) [Example 27]"
6,10,"C[C@@H](c1ccc(F)cc1Cl)N1CCC(F)(COc2cc(F)c(C(=O)NS(C)(=O)=O)cc2C2CC2)CC1 (single isomer, unassigned) [Example 18]"
7,9.8,"CS(=O)(=O)NC(=O)c1cc(C2CC2)c(OCC2(F)CCN(Cc3cc(C(F)(F)F)cc(C4CC4)n3)CC2)cc1F [Example 43, 5-cyclopropyl-4-((1-((6-cyclopropyl-4-(trifluoromethyl)pyridin-2-yl)methyl)-4-fluoropiperidin-4-yl)methoxy)-2-fluoro-N-(methylsulfonyl)benzamide]"
8,9.3,"O=C(NS(=O)(=O)C1CC1)c1cc(C2CC2)c(OCC2(F)CCN(c3cc(C(F)(F)F)c(Cl)cn3)CC2)cc1F [Example 59, 4-((1-(5-chloro-4-(trifluoromethyl)pyridin-2-yl)-4-fluoropiperidin-4-yl)methoxy)-5-cyclopropyl-N-(cyclopropylsulfonyl)-2-fluorobenzamide]"
9,6.8,"CC(C)Oc1ncc(CN2CCC(F)(COc3cc(F)c(C(=O)NS(=O)(=O)C4CC4)cc3C3CC3)CC2)cc1Cl [Example 56, 4-((1-((5-chloro-6-isopropoxypyridin-3-yl)methyl)-4-fluoropiperidin-4-yl)methoxy)-5-cyclopropyl-N-(cyclopropylsulfonyl)-2-fluorobenzamide]"
10,4.6,"C[C@H](c1ccc(Cl)c(F)c1)N1CCC(COc2cc(F)c(C(=O)NS(C)(=O)=O)cc2C2CC2)CC1 (single isomer, unassigned) [Example 39]"
11,8.8,"C[C@H](c1cc(Cl)cc(Cl)c1C#N)N1CCC(COc2cc(F)c(C(=O)NS(C)(=O)=O)cc2C2CC2)CC1 (single isomer, unassigned) [Example 1]"
12,19,"CS(=O)(=O)NC(=O)c1cc(C2CC2)c(OCC2(F)CCN(Cc3ncc(C(F)(F)F)cc3Cl)CC2)cc1F [Example 42, 4-((1-((3-chloro-5-(trifluoromethyl)pyridin-2-yl)methyl)-4-fluoropiperidin-4-yl)methoxy)-5-cyclopropyl-2-fluoro-N-(methylsulfonyl)benzamide]"
13,7.9,"COC1(COc2cc(F)c(C(=O)NS(C)(=O)=O)cc2C2CC2)CCN(Cc2cc(C(F)(F)F)cc(Cl)c2F)CC1 [Example 7, 4-((1-(3-Chloro-2-fluoro-5-(trifluoromethyl)benzyl)-4-methoxypiperidin-4-yl)methoxy)-5-cyclopropyl-2-fluoro-N-(methylsulfonyl)benzamide]"
14,4.2,"CS(=O)(=O)NC(=O)c1cc(C2CC2)c(OCC2(F)CCN(Cc3ccc(F)cc3Cl)CC2)cc1F [Example 29, 4-((1-(2-Chloro-4-fluorobenzyl)-4-fluoropiperidin-4-yl)methoxy)-5-cyclopropyl-2-fluoro-N-(methylsulfonyl)benzamide]"
